Like-named read-outs stand apart in the source and are kept apart here.
What was measured:
[1] = system: P. falciparum female gametocytes; test: P. falciparum Dual Gamete Formation Assay (PfDGFA), female readout (Pfs25-positive female gametes); assay type: cell-based, Plasmodium falciparum NF54; details: for IC50: PfDGFA, 24 h incubation with gametocytes before induction, female gamete readout, read-out: Female IC50; for HitlevelF: number of replicates with >50% inhibition in the female readout
Procedure: (§1) P. falciparum NF54 (originally isolated from an imported malaria case in the Netherlands in the 1980s; BEI Resources, cat. No. MRA-1000) strain asexual parasites were maintained between 0.3–5% parasitaemia by regular passage in complete culture medium (RPMI supplemented with 25 mM HEPES, 50 μg ml^−1 hypoxanthine, 4.8 g l^−1 NaHCO3, 2mM L-glutamine, 5% pooled type AB serum, 0.5% Albumax II (Gibco)) at 4% haematocrit in washed whole blood (National Blood and Transfusion Service or Centro de Transfusiones de la Comunidad de Madrid CTCM) under a 1% O2/3% CO2/96% N2 environment. Gametocytes were induced by seeding culture flasks at 2% parasitaemia/4% haematocrit and subjecting them to daily medium changes for 14 days whilst maintaining a temperature of 37°C at all times. On Day 14, the maturity of gametocytes was assessed by quantifying male gametogenesis (exflagellation). A 20 μl sample of gametocyte culture was mixed with equal volume of ookinete medium (complete culture medium supplemented with 0.1 μM xanthurenic acid) at room temperature and transferred to a haemocytometer. After 20 min at room temperature, exflagellation was accurately quantified as described in Delves et al. 2016 [17].
(§2) The Pf DGFA was performed as described in Delves et al. 2016 [17]. […] Plates were then incubated for 24 h at 37°C in a humidified box under a 1% O2/3% CO2/96% N2 gas mix. Gametogenesis was triggered by addition of 10 μl per well of ookinete medium + 0.27 μg ml^-1 Cy3-labelled anti-Pfs25 antibody. Plates were incubated on a metal block at 4°C for 4 min to ensure even cooling, then 28°C for a further 4 min. Exflagellation was recorded by capturing 10 frames over 1 s under brightfield illumination using a x4 objective with a 1.5x zoom (effectively x6) attached to an automated Nikon Ti fluorescence microscope. After recording exflagellation, plates were incubated for a further 24 h in the dark at 28°C to ensure maximal expression of Pfs25 by female gametes. The plates were then returned to the microscope and female gametes imaged at x6 using fluorescence microscopy.
(§3) Exflagellation centres and female gametes were quantified using custom image analysis pipelines developed within ICY Bioimage Analysis (https://icy.bioimageanalysis.org/).

[2] = system: P. falciparum male gametocytes; test: P. falciparum Dual Gamete Formation Assay (PfDGFA), male readout (exflagellation); assay type: cell-based, Plasmodium falciparum NF54; details: for % inhibition male (individual replicates) R3: replicate R3; for IC50: PfDGFA, 24 h incubation with gametocytes before induction, exflagellation readout, read-out: Male IC50; for HitlevelM: number of replicates with >50% inhibition in the male readout
Procedure: as §1, §2, §3

[3] = PfDGFA at 2µM, 24h preincubation with gametocytes prior to induction of gametogenesis, replicate R1
[4] = PfDGFA at 2µM, 24h preincubation with gametocytes prior to induction of gametogenesis, replicate R3
[5] = PfDGFA at 2µM, 24h preincubation with gametocytes prior to induction of gametogenesis, replicate R4
[6] = PfDGFA at 2µM, 24h preincubation, average of replicates
[7] = PfDGFA at 2µM, 24h preincubation with gametocytes prior to induction of gametogenesis
[8] = PfDGFA at 2µM, 24h preincubation with gametocytes, average of replicates
[9] = PfDGFA at 2µM, 24h preincubation with gametocytes, replicate R1
[10] = PfDGFA at 2µM, 24h preincubation with gametocytes, replicate R4
[11] = 2µM, 24h preincubation with gametocytes, average of replicates
[12] = 2µM, 24h preincubation with gametocytes, replicate R1
[13] = 2µM, 24h preincubation with gametocytes, replicate R4

For `Br.CC(C)(C)c1ccc(Cn2c(=N)n(CC(=O)c3ccc(-c4ccccc4)cc3)c3ccccc32)cc1` [TCMDC-124030], the “% inhibition female (individual replicates) R1” value [1, 3] was -3.8%, the “% inhibition female (individual replicates) R3” value [1, 4] was -20.2% and the “% inhibition female (individual replicates) R4” value [1, 5] was -0.7%. The “Average inhibition female (%)” value [1, 6] was -8.6%, the “% inhibition male (individual replicates) R1” value [2, 3] was -15.4% and the “% inhibition male (individual replicates) R3” value [2, 7] was -16.6%. The “% inhibition male (individual replicates) R4” value [2, 5] was -3.3% and the “Average inhibition male (%)” value [2, 6] was -8.2%.
`O=C(Nc1ccc([N+](=O)[O-])cc1)c1nn(-c2ccccc2)cc1/N=C/c1cccc(O)c1` [TCMDC-124108] was tested, and the “% inhibition female (individual replicates) R1” value [1, 3] was 7.8%, the “% inhibition female (individual replicates) R3” value [1, 4] was -29.5% and the “% inhibition female (individual replicates) R4” value [1, 5] was -3.2%. The “Average inhibition female (%)” value [1, 6] was -2.4%, the “% inhibition male (individual replicates) R1” value [2, 3] was -5.9% and the “% inhibition male (individual replicates) R3” value [2, 7] was -27.6%. The “% inhibition male (individual replicates) R4” value [2, 5] was -9.8% and the “Average inhibition male (%)” value [2, 6] was -10.2%.
In the case of `c1ccc2[nH]c(CN(Cc3nc4ccccc4[nH]3)Cc3nc4ccccc4[nH]3)nc2c1` [TCMDC-124132], the “Selectivity ratio F” value ([1]; HepG2 Tox50 versus female IC50) is reported as 10.00, the inhibition at 2 µM ([1]; Plasmodium falciparum, PfDGFA at 2µM, 24h preincubation with gametocytes, average of replicates, read-out: Average inhibition female (%)) is reported as 5% and the inhibition at 2 µM ([1]; Plasmodium falciparum, PfDGFA at 2µM, 24h preincubation with gametocytes, replicate R1, read-out: % inhibition female (individual replicates) R1) is reported as 1.1%. The inhibition at 2 µM ([1]; Plasmodium falciparum, PfDGFA at 2µM, 24h preincubation with gametocytes, replicate R2, read-out: % inhibition female (individual replicates) R2) was -7.6%, the inhibition at 2 µM ([1]; Plasmodium falciparum, PfDGFA at 2µM, 24h preincubation with gametocytes, replicate R3, read-out: % inhibition female (individual replicates) R3) was 23.9% and the inhibition at 2 µM ([1]; Plasmodium falciparum, PfDGFA at 2µM, 24h preincubation with gametocytes, replicate R4, read-out: % inhibition female (individual replicates) R4) was 2.5%. The IC50 ([1]; Plasmodium falciparum) was over 10000 nM, the HitlevelF ([1]; 2µM) was 0 and the “Selectivity Ratio M” value ([2]; HepG2 Tox50 versus male IC50) was 14.81. It also gave an inhibition at 2 µM ([2]; Plasmodium falciparum, PfDGFA at 2µM, 24h preincubation with gametocytes, average of replicates, read-out: Average inhibition male (%)) of 78.3%, an inhibition at 2 µM ([2]; Plasmodium falciparum, PfDGFA at 2µM, 24h preincubation with gametocytes, replicate R1, read-out: % inhibition male (individual replicates) R1) of 68.8% and an inhibition at 2 µM ([2]; Plasmodium falciparum, PfDGFA at 2µM, 24h preincubation with gametocytes, replicate R2, read-out: % inhibition male (individual replicates) R2) of 80.9%. The inhibition at 2 µM ([2]; Plasmodium falciparum, PfDGFA at 2µM, 24h preincubation with gametocytes, replicate R4, read-out: % inhibition male (individual replicates) R4) was 85.2%, the IC50 ([2]; Plasmodium falciparum) was 6750 nM and the HitlevelM ([2]; 2µM) was 3.
For `COc1ccc(N2C(N)=NC(N)=NC2(C)C)cc1.Cl` [TCMDC-124269], the “% inhibition female (individual replicates) R1” value [1, 3] was 13.5%, the “% inhibition female (individual replicates) R3” value [1, 4] was -15.3% and the “% inhibition female (individual replicates) R4” value [1, 5] was 10.3%. For the same molecule, the “Average inhibition female (%)” value [1, 6] was 1.7%, the “% inhibition male (individual replicates) R1” value [2, 3] was 22.5% and the “% inhibition male (individual replicates) R3” value [2, 7] was 4.0%. The “% inhibition male (individual replicates) R4” value [2, 5] was -9.1% and the “Average inhibition male (%)” value [2, 6] was 11.6%.
In the case of `CC(=NNC(=S)NCCc1ccccc1)c1ccccn1` [TCMDC-124270], the “Average inhibition female (%)” value [1, 8] is reported as 36.2%, the “% inhibition female (individual replicates) R1” value [1, 9] is reported as 25.2% and the “% inhibition female (individual replicates) R3” value ([1]; PfDGFA at 2µM, 24h preincubation with gametocytes, replicate R3) is reported as 20.9%. For the same molecule, the “% inhibition female (individual replicates) R4” value [1, 10] was 55.8%, the IC50 [1] was 530 nM and the HitlevelF ([1]; 2µM) was 1. For the same molecule, the “Average inhibition male (%)” value [2, 8] was 63.1%, the “% inhibition male (individual replicates) R1” value [2, 9] was 70.1% and the “% inhibition male (individual replicates) R3” value ([2]; PfDGFA at 2µM, 24h preincubation with gametocytes) was 69.5%. The “% inhibition male (individual replicates) R4” value [2, 10] was 18.9%, the IC50 [2] was 640 nM and the HitlevelM ([2]; 2µM) was 3.
For `CC(C)(c1ccccc1)c1ccc(O)c(CN2CCOCC2)c1` [TCMDC-124276], the “% inhibition female (individual replicates) R1” value [1, 3] was 0.5%, the “% inhibition female (individual replicates) R3” value [1, 4] was 8.1% and the “% inhibition female (individual replicates) R4” value [1, 5] was -2.3%. For the same molecule, the “Average inhibition female (%)” value [1, 6] was -2.0%, the “% inhibition male (individual replicates) R1” value [2, 3] was 1.1% and the “% inhibition male (individual replicates) R4” value [2, 5] was -1.8%. The “Average inhibition male (%)” value [2, 6] was 10.2%.
With `CC(=NNC(=S)Nc1ccccc1Cl)c1ccccn1` [TCMDC-124278] the “Average inhibition female (%)” value [1, 11] was 61.5%, the “% inhibition female (individual replicates) R1” value [1, 12] was 40.0% and the “% inhibition female (individual replicates) R3” value ([1]; 2µM, 24h preincubation with gametocytes, replicate R3) was 55.6%. For the same molecule, the “% inhibition female (individual replicates) R4” value [1, 13] was 74.7%, the IC50 [1] was 300 nM and the “Average inhibition male (%)” value [2, 11] was 101.3%. The “% inhibition male (individual replicates) R1” value [2, 12] was 101.8%, the “% inhibition male (individual replicates) R3” value ([2]; 2µM, 24h preincubation with gametocytes) was 99.8% and the “% inhibition male (individual replicates) R4” value [2, 13] was 103.6%. It also gave an IC50 [2] of 110 nM.
For `CCCCOc1ccc(N2C(N)=NC(N)=NC2(C)C)cc1.Cl` [TCMDC-124279], the “% inhibition female (individual replicates) R1” value [1, 3] was 2.1%, the “% inhibition female (individual replicates) R3” value [1, 4] was -37.2% and the “% inhibition female (individual replicates) R4” value [1, 5] was 21.1%. The “Average inhibition female (%)” value [1, 6] was -3.8%, the “% inhibition male (individual replicates) R1” value [2, 3] was -7.3% and the “% inhibition male (individual replicates) R3” value [2, 7] was -37.1%. For the same molecule, the “% inhibition male (individual replicates) R4” value [2, 5] was -28.5% and the “Average inhibition male (%)” value [2, 6] was -17.0%.

From PMC10584170, “Machine learning-based phenotypic imaging to characterise the targetable biology of Plasmodium falciparum male gametocytes for the development of transmission-blocking antimalarials” (PLOS Pathogens, 2023)
